Consider two compounds from patent publication US10864279B2, “Linker-drug and antibody-drug conjugate (ADC) employing the same” (priority 2016, dated 2020).

Series [1] is described as follows: Storage test in DMSO (LC-MS). The conditions noted are these: 20 mM in DMSO, 0, 21, 92 and 99 days at −20° C. It is filed as physicochemical. The protocol: 20 mM Linker-drug 7 was stored in DMSO for 0, 21, 92 and 99 days at −20° C. LC-MS was used to analyze the purity of Linker-drug 7. The condition of LC-MS analysis was as follows.
Column: 4.6 mm×20 mm XBridge C18 column (Waters, Milford USA)
Linear gradient: 5 to 70% solvent B (100% acetonitrile with 0.1% formic acid)
Solvent A (0.1% formic acid in ddH2O)
Solvent B (100% acetonitrile with 0.1% formic acid)

Series [2] deals with HER2-negative cell lines MDA-MB-468. As to the kind of experiment: Potency test, CCK-8 cell viability, MDA-MB-468. Type of series: cell-based. The conditions noted are these: HER2 expression negative, 72-120 hours. As for the experimental part: (§1) Cells were seeded in Corning CellBIND 96-well plates at densities of 6×10^3 cells/well. After incubation overnight at 37° C., 5% CO2 incubator, different concentrations of ADCs were added to the cells in serial dilutions. The cells were then incubated for 72-120 hours at 37° C., 5% CO2 incubator. After 72-120 hours, the old medium was removed and the cells were rinsed once and treated with 10-fold diluted CCK-8 reagent at 37° C. for 4 hours. The 96-well plates were put in the ELISA reader to measure the absorbance wavelength at 450 nm. Cell viability was calculated by the following equation: Cell Viability (%)=(Intensity of sample/Intensity of control)×100%. IC50 values of the ADC samples were calculated using SigmaPlot software.

In series [3] the test system is HER2 high-expressing breast cancer cell lines BT-474. As to the kind of experiment: Potency test, CCK-8 cell viability, BT-474. It is filed as cell-based. The conditions noted are these: for IC50: HER2 expression 3+, 72-120 hours; for In vitro selectivity MDA-MB-468/BT-474: ratio of IC50. As for the experimental part:
as §1

Series [4] concerns HER2 moderate-expressing breast cancer cell lines JIMT-1 with anti-Herceptin drug resistance. Briefly: Potency test, CCK-8 cell viability, JIMT-1. Type of series: cell-based. The conditions noted are these: for IC50: HER2 expression 2+ resistant, 72-120 hours; for In vitro selectivity MDA-MB-468/JIMT-1: ratio of IC50. The protocol:
as §1

Series [5] relates to Endometrial cancer tumor tissue, HER2-positive (+1). Briefly: Tumor growth inhibition test: EC PDX model. The conditions noted are these: 10 mg/kg i.v.; Day 12, table head Day 0-60. It is filed as in vivo, NODSCID mice. The protocol:
Endometrial cancer tumor tissue obtained from National Taiwan University was confirmed to be HER2-positive (+1). Tumor (2-3 mm diameter) was subcutaneous implanted to NODSCID mice to test the drug efficacy of ADCs in vivo. When the average tumor size was about 100 mm^3, mice were divided into groups and ADCs were intravenously injected (10 mL/kg B.W. injection volume).

As for `CC[C@H](C)[C@@H]([C@@H](CC(=O)C1CCCN1[C@H](OC)[C@@H](C)C(=O)N[C@H](Cc1ccccc1)C(=O)NCCc1ccc(NC(=O)[C@@H](CCCNC(N)=O)NC(=O)[C@@H](NC(=O)COCCOCCOCCOCCNC(=O)c2ccc(NC(=O)CCl)c(NC(=O)CCl)c2)C(C)C)cc1)OC)N(C)C(=O)[C@H](NC(=O)[C@H](C(C)C)N(C)C)C(C)C` (stereo partly drawn) [Linker-drug 7], the “storage stability (purity by LC-MS)” value in series [1] is reported as “stable when dissolved in DMSO”.

Consider ado-trastuzumab emtansine [Kadcyla], for which the concentration for half-maximal inhibition (IC50) – broadly, the point on the concentration scale where inhibition reaches its midpoint – is 15.2 nM in series [2] (Table 3); 8.11 nM in series [2] (Table 4); 2.27 nM in series [3] (Table 3); 0.31 nM in series [3] (Table 4); 15.5 nM in series [4] (Table 3); 27 nM in series [4] (Table 4). Further, the “In vitro selectivity MDA-MB-468/BT-474” value is 5.5 in series [3] (Table 3) and 26.16 in series [3] (Table 4). For the same compound, the “In vitro selectivity MDA-MB-468/JIMT-1” value in series [4] (Table 3) was 1; in series [4] (Table 4), 0.30. In addition, the “TGI (%) ± SEM” value in series [5] worked out at 26.5±10.1%.
